Reference: patent publication US12570704B2, “Functionally modified maytansinoids and compositions and methods of use thereof” (University of Georgia Research Foundation, Inc., priority 2019, dated 2026)

Tests used:
[1] = test system: H1299 cells; experiment: MTT cell viability assay, 72 h, in the presence of RT; format: cell-based, human; conditions: Homo sapiens, NCI-H1299, with RT
Experimental: FIGS. 7A-7E are plots showing the results of a cell cycle analysis, based on PI staining and assessed by flow cytometry. H1299 cells were incubated with PBS (7A), DM1 (7B), DM1-NO (7C), DM1-NPs (7D), or DM1-NO-NPs (20 nM, DM1 concentration) (7E) before analysis. […] FIG. 7G is a bar graphs showing Percentage of tubulin inhibition. Tubulin polymer was collected by centrifugation (35000×g for 1 h at 30° C.) and the amount of tubulin protein sediment was quantified by measuring protein concentration. ***, P<0.001. FIG. 7H is a line graph showing cell viability, tested with H1299 cells using 72-h MTT in the presence of RT. DM1, DM1-NO, and DM1-NO-NPs were studied.
The viability of the H1299 cells after different treatments was measured by (4,5-dimethythiazon-2-yl)-2,5-diphenyl tetrazolium bromide (MTT) assay using an Infinite M200 microplate reader (BioTek's Synergy™ Mx, USA). Around 3×10^3 cells per well were seeded into a 96-well plate and cultured overnight until the cells fully adhered to the bottom of the plate. The cells were treated with different treatment groups, including free drugs (DM1 and DM1-NO), and drug loaded nanoparticles (DM1-NPs and DM1-NO-NPs) for 72 h. […] The plate was gently shake for 5 min (instrument setup) to dissolve the formazan crystals, and the absorbance at 570 nm was recorded by a microplate reader. […]

[2] = test system: H1299 cells; experiment: Superoxide dismutase (SOD) assay, cytosolic and mitochondrial; format: cell-based, human; conditions: +RT (6 Gy), 20 nM, compared to DM1+RT
Experimental: Around 3×10^4 cells per well were seeded into each well of a six-well plate and cultured overnight. The cells treated with free drug (DM1 and DM1-NO), and drug loaded nanoparticles (DM1-NPs and DM1-NO-NPs) were given the same concentration of drug (20 nM) and irradiated with 6 Gy of radiation. The plates were then incubated for 24 h. After the treatment, the cells were rinsed with PBS, and the cell pellets were collected using a cell scraper. Cells were homogenized using a sonicator in ice-cold 20 mM 4-(2-hydroxyethyl)-1-piperazineethanesulfonic acid (HEPS) buffer (pH 7.2, containing 1 mM of ethylene glycol-bis(β-aminoethyl ether)-N,N,N′,N′-tetraacetic acid, also known as EGTA; Millipore Sigma, USA), […] of mannitol, and 70 mM sucrose. Following homogenization, a pellet was formed by centrifugation at 15,000×g for 15 minutes at 4° C. The supernatant was collected, and an assay was immediately performed to assess cytosolic SOD levels by comparing to a standard curve. To measure mitochondrial SOD levels, the pellet was resuspended in ice-cold PBS, and the sample was measured accordingly.

[3] = test system: H1299 tumor bearing nude mice; experiment: In vivo therapy study with X-ray irradiation; conditions: 260.8 nmol/kg i.v. + 6 Gy after 4 h; RT only 1826.4
Experimental: All animal experiments were performed according to protocols approved by the Institutional Animal Care and Use Committee (IACUC). Female athymic nude mice (Charles River Laboratories, USA) at 6 weeks old were housed in a protected unit specified for immunodeficient animals. To establish tumor models, H1299 cells (2×10^5 cells) were suspend in a matrigel solution and were subcutaneously injected into mice using a 28-gauge needle. All mice were randomized into six groups (n=5). When the average tumor volume reached 150 mm3, 200 μL free drug (DM1, DM1-NO) or drug loaded NPs (DM1-NPs, DM1-NO-NPs) in PBS at a dose of 260.8 nmol/kg were injected intravenously into the mice. Mice treated with 200 μL PBS were studied as a control. All the other mice received X-ray irradiation (6 Gy, 320 kV) to tumors 4 h after drug/nanoparticle injection, with the rest of the body shielded by lead. Tumor size and body weight were inspected every 3 days using a digital caliper, and the tumor volume was estimated as (length)×(width)2/2. After 24 days, the mice were euthanized, and the tumor was excised and dissected into slices for hematoxylin and eosin (H&E) staining.
In vivo therapy studies were performed with H1299 tumor bearing nude mice. When tumor size reached 150 mm3, DM1-NO-NPs (260.8 nmol/kg, equivalent to 0.2 mg DM1/kg) was intravenously (i.v.) injected into the animals (n=5). […]

SMILES: COc1cc2cc(c1Cl)N(C)C(=O)C[C@@H](OC(=O)[C@H](C)N(C)C(=O)CCSN=O)[C@]1(C)OC1[C@H](C)[C@@H]1C[C@@](O)(NC(=O)O1)[C@H](OC)/C=C\C=C(/C)C2 (stereo partly shown) [DM1-NO]
- IC50 [1]: 14.9 nM
- increase of cytosol SOD activity [2]: 70.08%
- increase of mitochondrial SOD activity [2]: 24.36%
- average tumor size (volume) on Day 24 [3]: 759.33 mm3
